Results reported in the NIST ThermoML archive (doi:10.1016/j.jct.2017.11.004).
Several values for one entry are separate records, joined by “and”; a condition that tells them apart may be missing. Equal values may be shown once.

Conditions: Crystal, Rate of evaporation

O=C=O [carbon dioxide]
Conditions	vapor or sublimation pressure
80.03 K	7.21e-09 kPa
80.53 K	8.98e-09 kPa and 8.61e-09 kPa
81.03 K	1.11e-08 kPa and 1.252e-08 kPa
81.52 K	1.416e-08 kPa and 1.56e-08 kPa
82.02 K	1.819e-08 kPa and 1.911e-08 kPa
82.52 K	2.353e-08 kPa and 2.519e-08 kPa
83.02 K	2.981e-08 kPa and 3.328e-08 kPa
83.53 K	3.967e-08 kPa and 4.446e-08 kPa
84.03 K	5.272e-08 kPa and 5.947e-08 kPa
84.53 K	6.988e-08 kPa and 6.758e-08 kPa

O [water]
Conditions	vapor or sublimation pressure
154.97 K	3.289e-08 kPa and 2.922e-08 kPa
155.96 K	4.124e-08 kPa
156.96 K	5.337e-08 kPa
156.97 K	6.144e-08 kPa
157.96 K	7.108e-08 kPa
158.97 K	9.378e-08 kPa
159.96 K	1.174e-07 kPa
159.98 K	1.185e-07 kPa
160.47 K	1.414e-07 kPa
160.96 K	1.421e-07 kPa
160.97 K	1.636e-07 kPa
161.47 K	1.872e-07 kPa

[Ne] [neon]
Conditions	vapor or sublimation pressure [kPa]
8.004 K	2.98e-08
8.251 K	6.87e-08
8.502 K	1.633e-07
8.749 K	3.617e-07
8.792 K	4.482e-07
8.996 K	9.17e-07
9.046 K	9.212e-07
9.251 K	1.832e-06
9.468 K	2.529e-06
9.518 K	3.574e-06
9.727 K	5.097e-06
9.776 K	6.564e-06

[Kr] [krypton]
Conditions	vapor or sublimation pressure
38.5 K	1.68e-09 kPa and 1.86e-09 kPa
39 K	2.84e-09 kPa and 2.68e-09 kPa
39.49 K	4.01e-09 kPa
39.5 K	4.34e-09 kPa
39.99 K	6.3e-09 kPa
40 K	6.56e-09 kPa
40.49 K	9.97e-09 kPa and 9.68e-09 kPa
41 K	1.527e-08 kPa and 1.475e-08 kPa
41.5 K	2.312e-08 kPa and 2.262e-08 kPa
42 K	3.529e-08 kPa and 3.422e-08 kPa
42.5 K	5.406e-08 kPa
42.51 K	5.092e-08 kPa

[Ar] [argon]
Conditions	vapor or sublimation pressure
27.51 K	1.95e-09 kPa and 1.73e-09 kPa
28.01 K	3.29e-09 kPa and 3.3e-09 kPa
28.5 K	5.92e-09 kPa
28.51 K	5.83e-09 kPa
29 K	1.028e-08 kPa
29.01 K	1.035e-08 kPa
29.5 K	1.808e-08 kPa
29.51 K	1.812e-08 kPa
30 K	3.105e-08 kPa and 3.116e-08 kPa
30.49 K	5.189e-08 kPa
30.5 K	5.157e-08 kPa
30.99 K	8.27e-08 kPa
31 K	8.469e-08 kPa

N#N [nitrogen]
Conditions	vapor or sublimation pressure [kPa]
23.5 K	1.9e-10
23.51 K	1.5e-10
24 K	4e-10
24.5 K	8.2e-10
25 K	1.66e-09
25.49 K	3.24e-09
25.99 K	6.63e-09
26.48 K	1.287e-08
26.99 K	2.45e-08
27.48 K	3.89e-08

O=O [oxygen]
Conditions	vapor or sublimation pressure
28.99 K	1.81e-09 kPa
29.48 K	5.02e-09 kPa and 3.06e-09 kPa
29.98 K	5.64e-09 kPa
29.99 K	8.75e-09 kPa
30.47 K	1.01e-08 kPa and 1.531e-08 kPa
30.98 K	1.855e-08 kPa and 2.698e-08 kPa
31.48 K	3.339e-08 kPa and 4.84e-08 kPa
31.77 K	8.494e-08 kPa
31.98 K	5.894e-08 kPa
32.48 K	1.034e-07 kPa and 1.469e-07 kPa
32.98 K	1.632e-07 kPa

[Xe] [xenon]
Conditions	vapor or sublimation pressure
50.01 K	4.67e-10 kPa and 4.85e-10 kPa
51.02 K	1.113e-09 kPa and 1.049e-09 kPa
52.02 K	2.544e-09 kPa
52.52 K	2.776e-09 kPa and 3.083e-09 kPa
53.02 K	4.226e-09 kPa and 4.645e-09 kPa
53.52 K	5.796e-09 kPa and 5.947e-09 kPa
54.02 K	8.078e-09 kPa and 8.286e-09 kPa
54.52 K	1.126e-08 kPa and 1.15e-08 kPa
55.02 K	1.528e-08 kPa and 1.544e-08 kPa
55.52 K	2.113e-08 kPa
56.02 K	2.907e-08 kPa and 2.973e-08 kPa
56.52 K	3.938e-08 kPa
56.53 K	4.024e-08 kPa
57.03 K	5.416e-08 kPa and 5.32e-08 kPa
